“And” between values parts separate entries of the source, which are not always exact repeats. Identical values can stand only once. Numbers after ± are expanded uncertainties.
Conditions: Pendant drop shape

For `O` [water], which surface tension liquid-gas (271.2 K) is on record?
Its surface tension liquid-gas is 76.43 ± 1.8 mN/m and 76.39 ± 1.9 mN/m.

And the surface tension liquid-gas (274.2 K)?
Its surface tension liquid-gas is 75.74 ± 1.8 mN/m and 75.89 ± 1.5 mN/m.

And the surface tension liquid-gas (276.2 K)?
The surface tension liquid-gas was 75.11 ± 1.5 mN/m and 75.34 ± 1.9 mN/m.

And the surface tension liquid-gas (278.2 K)?
The surface tension liquid-gas was 74.61 ± 2 mN/m and 74.98 ± 1.9 mN/m.

What about the surface tension liquid-gas (280.2 K) of the same molecule?
The surface tension liquid-gas was 74.5 ± 1.4 mN/m and 74.21 ± 1.3 mN/m.
